# Assay results from publication PMC8727733, “Improvement of glycine biosynthesis from one‐carbon compounds and ammonia catalyzed by the glycine cleavage system in vitro” (Engineering in Life Sciences, 2021).
# Target: T1, glycine cleavage system (GCS), L protein with P, T and H proteins (Escherichia coli, UniProt P0A9P0)
# T1 construct: gene lpdA; printed WP records may differ from the MG1655 alleles; with Glycine dehydrogenase (decarboxylating); Aminomethyltransferase; Glycine cleavage system H protein
# T1 sequence (P0A9P0 2-474): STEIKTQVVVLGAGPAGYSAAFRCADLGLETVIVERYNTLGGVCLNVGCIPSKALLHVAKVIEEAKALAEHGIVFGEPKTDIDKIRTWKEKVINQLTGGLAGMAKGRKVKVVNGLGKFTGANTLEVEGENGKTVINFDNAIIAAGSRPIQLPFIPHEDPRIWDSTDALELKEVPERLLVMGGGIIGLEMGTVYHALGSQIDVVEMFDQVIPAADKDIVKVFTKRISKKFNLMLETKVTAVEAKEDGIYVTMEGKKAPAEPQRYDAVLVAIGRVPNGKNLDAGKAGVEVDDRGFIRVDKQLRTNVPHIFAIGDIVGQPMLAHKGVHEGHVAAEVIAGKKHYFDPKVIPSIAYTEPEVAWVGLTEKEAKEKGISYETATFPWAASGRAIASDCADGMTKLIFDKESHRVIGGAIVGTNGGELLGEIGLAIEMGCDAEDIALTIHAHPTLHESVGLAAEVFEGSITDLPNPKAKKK
# T1 sequence (P0A6T9 2-129 partner): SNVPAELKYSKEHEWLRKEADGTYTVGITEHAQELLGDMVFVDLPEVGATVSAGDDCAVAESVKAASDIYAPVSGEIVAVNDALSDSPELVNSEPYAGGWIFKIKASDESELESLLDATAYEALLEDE
# Experiment: glycine-dependent NADH formation, spectrophotometric, reconstituted GCS
# Type: biochemical
# Details: 5 mM NAD+, 50 mM glycine, 0.5 mM THF, 20 mM DTT, 25 uM PLP, 50 mM Tris-HCl pH 7.5, 37 C; overall glycine cleavage
compound,measurement,value
NC(=O)c1ccc[n+]([C@@H]2O[C@H](COP(=O)(O)OP(=O)(O)OC[C@H]3O[C@@H](n4cnc5c(N)ncnc54)[C@H](O)[C@@H]3O)[C@@H](O)[C@H]2O)c1 [NAD+],"glycine-dependent NADH formation, spectrophotometric, reconstituted GCS",measuring glycine‐dependent NADH formation
